Reference: US9173878B2, “Brain function improving agent” (Tohoku University, priority 2012, dated 2015)

Target: T1, T-type calcium channel (Cav 3.1) (Homo sapiens, UniProt O43497)
T1 construct: Thermo Fisher Scientific Ltd. (vector pCMV-SPORT6); host or cells: mouse neuroblastoma cell line Neuro2A, transient transfection with Lipofectamine 2000
Experiment: Calcium imaging (Fura-2) in Cav 3.1 gene-transfected Neuro2A cells
Type: cell-based, mouse
Settings: for change in calcium concentration after SAK3 addition: Cav3.1 expressing cells
Experimental: The cells of mouse neuroblastoma cell line Neuro2A were purchased from the Human Science Research Resources Bank (#IFO50081, Osaka, Japan). […] Then, the Neuro2A cells were seeded to a glass bottom dish at a concentration of 1 to 2×10^6 cell/φ35-mm dish, and cultivated for 24 hours in a standard culture medium, and the cells were transfected using Lipofectamine 2000 (Invitrogen, Carsbad, Calif., USA) and using a plasmid vector containing a T-type calcium channel (Cav 3.1) genes (serum-free culture of Lipofectamine 2000: DNA=1 μl: 1 μg, 1.5 ml). The T-type calcium channel (Cav 3.1) gene, the plasmid vector pCMV-SPORT6, and the Lipofectamine 2000 were respectively purchased from OriGene Technologies, Inc., Thermo Fisher Scientific Ltd., and Invitrogen, and the transfection was performed according to the protocol attached to Lipofectamine 2000 other than the rate adjustment of the Lipofectamine 2000 and plasmid vector. The serum-free culture was replaced with a standard culture 6 hours after transfect, and calcium imaging (calcium concentration measurement) was performed after Cav 3.1 expression was confirmed after 48 hours of culture. T-type calcium channel expressing Neuor2A cells were dispersed in a glass bottom dish, and 2.5 μM of Fura-2-AM (Sigma, St Louis, Mo., USA) was added to the dish in perfusion (Krebs-Hepes buffer; KRH), then the dish was incubated at 37° C. for 30 minutes. A Fura-2-AM-free KRH was replaced with perfusion, and the Neuro2A cells were stimulized with SAK3 (100 pM) as the intracellular calcium was measured with a fluorescent microscope, then the cells were further stimulized with nicotin (1 μM), ATP (0.1 μM), DHPG (20 μM), as necessary.

T1 sequence (O43497 whole entry): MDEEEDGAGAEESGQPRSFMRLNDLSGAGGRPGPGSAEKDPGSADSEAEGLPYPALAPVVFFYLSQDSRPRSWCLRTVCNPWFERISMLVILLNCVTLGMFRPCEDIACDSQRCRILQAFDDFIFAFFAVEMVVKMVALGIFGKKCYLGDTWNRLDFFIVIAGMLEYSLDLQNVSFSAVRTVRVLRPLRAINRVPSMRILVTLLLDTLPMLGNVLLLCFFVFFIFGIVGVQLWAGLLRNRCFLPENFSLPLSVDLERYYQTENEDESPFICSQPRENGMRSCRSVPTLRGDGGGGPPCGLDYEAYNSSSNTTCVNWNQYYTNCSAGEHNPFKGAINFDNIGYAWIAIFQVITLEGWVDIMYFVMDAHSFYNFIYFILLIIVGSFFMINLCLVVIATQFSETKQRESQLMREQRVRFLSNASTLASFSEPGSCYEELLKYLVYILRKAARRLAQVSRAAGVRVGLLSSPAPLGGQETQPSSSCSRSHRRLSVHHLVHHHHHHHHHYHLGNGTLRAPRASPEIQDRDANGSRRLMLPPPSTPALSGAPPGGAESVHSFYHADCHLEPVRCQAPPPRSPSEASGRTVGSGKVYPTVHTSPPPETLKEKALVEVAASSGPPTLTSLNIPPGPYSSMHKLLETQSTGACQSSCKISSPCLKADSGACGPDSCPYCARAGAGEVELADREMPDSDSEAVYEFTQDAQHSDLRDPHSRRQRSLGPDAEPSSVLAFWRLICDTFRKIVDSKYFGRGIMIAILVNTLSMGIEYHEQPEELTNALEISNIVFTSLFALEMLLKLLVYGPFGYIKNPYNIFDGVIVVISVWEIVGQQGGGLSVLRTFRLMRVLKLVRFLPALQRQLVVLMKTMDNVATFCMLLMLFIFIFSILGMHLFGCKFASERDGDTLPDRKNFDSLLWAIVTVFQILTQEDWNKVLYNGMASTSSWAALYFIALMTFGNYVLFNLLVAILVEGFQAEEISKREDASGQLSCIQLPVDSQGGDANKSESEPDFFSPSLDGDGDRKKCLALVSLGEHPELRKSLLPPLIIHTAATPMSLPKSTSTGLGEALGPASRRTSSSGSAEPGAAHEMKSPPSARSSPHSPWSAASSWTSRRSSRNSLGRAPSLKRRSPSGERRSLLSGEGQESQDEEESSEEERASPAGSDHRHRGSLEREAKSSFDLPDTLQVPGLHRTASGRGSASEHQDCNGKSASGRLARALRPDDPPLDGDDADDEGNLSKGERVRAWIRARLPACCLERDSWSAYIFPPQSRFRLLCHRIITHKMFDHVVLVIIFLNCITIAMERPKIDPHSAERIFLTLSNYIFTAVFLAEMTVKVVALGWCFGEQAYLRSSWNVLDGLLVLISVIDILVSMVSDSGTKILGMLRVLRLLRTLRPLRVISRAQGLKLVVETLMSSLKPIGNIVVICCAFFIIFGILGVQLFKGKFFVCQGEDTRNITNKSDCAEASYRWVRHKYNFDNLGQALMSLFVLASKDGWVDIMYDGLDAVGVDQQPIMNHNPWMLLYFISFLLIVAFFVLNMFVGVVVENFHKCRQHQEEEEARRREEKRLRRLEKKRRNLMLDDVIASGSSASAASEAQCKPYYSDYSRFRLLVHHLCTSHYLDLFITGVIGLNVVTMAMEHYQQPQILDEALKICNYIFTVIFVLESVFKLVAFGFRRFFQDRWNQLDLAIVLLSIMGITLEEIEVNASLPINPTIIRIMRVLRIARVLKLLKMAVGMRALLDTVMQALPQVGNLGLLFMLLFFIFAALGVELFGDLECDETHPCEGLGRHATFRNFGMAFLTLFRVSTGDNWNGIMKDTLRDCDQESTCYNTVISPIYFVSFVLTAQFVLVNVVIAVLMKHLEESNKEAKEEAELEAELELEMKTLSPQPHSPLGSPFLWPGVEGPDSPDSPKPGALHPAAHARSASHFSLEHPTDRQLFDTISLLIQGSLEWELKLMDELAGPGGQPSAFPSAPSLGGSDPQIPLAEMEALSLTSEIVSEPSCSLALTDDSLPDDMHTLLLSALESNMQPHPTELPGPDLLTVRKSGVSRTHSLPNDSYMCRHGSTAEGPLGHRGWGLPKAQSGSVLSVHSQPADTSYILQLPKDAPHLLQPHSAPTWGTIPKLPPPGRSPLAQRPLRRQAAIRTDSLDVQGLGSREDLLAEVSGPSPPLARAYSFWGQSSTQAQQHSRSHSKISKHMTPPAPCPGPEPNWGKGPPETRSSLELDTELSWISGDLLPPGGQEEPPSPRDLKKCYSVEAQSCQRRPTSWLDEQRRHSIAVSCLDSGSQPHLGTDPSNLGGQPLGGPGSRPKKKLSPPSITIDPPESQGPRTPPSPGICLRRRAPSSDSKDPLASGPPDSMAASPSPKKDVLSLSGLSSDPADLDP

CCOC(=O)C1=C(N2CCCCC2)C2(CC1=O)C(=O)N=C1C(C)=CC=CN12 (stereo not drawn) [SAK3]
amount of influent calcium ion induced by adding ATP (ATP 0.1 μM, under the presence of SAK3 100 pM, transfected cells): not potentiated
change in calcium concentration after SAK3 addition (SAK3 100 pM): An increase in calcium concentration was confirmed
change in calcium concentration after SAK3 addition (SAK3 100 pM, mibefradil (10 μM) added): no increase in calcium concentration by SAK3 was confirmed
amount of intracellular influent calcium ion induced by SAK3 (Cav3.1 transfected cells, SAK3 100 pM): showed an increase in the amount of influent calcium ion
increase in amount of influent calcium ion induced by SAK3 (Cav3.1 transfected cells, addition of mibefradil (10 μM)): nearly cancelled out
amount of influent calcium ion induced by adding DHPG (DHPG 20 μM, under the presence of SAK3 100 pM, transfected cells): not potentiated
activation of T-type voltage dependent calcium channel relative to ST101 (compared with ST101): ≥ 10 folds
increase of the amount of influent calcium ion induced by nicotin under the presence of SAK3, transfected cells relative to non-transfected cells (nicotin 1 μM, SAK3 100 pM): 2 folds
effect of SAK3 on amount of influent calcium ion induced by nicotin (nicotin 1 μM, mibefradil (10 μM) added): cancelled out
